# From patent US20240016784A1, “Y BOX BINDING PROTEIN 1 INHIBITORS” (Oregon Health & Science University, priority 2020, published 2024)
# Key:
# ovarian cancer cells = experiment: Apoptotic cell death assay (Annexin-FITC); assay type: cell-based; settings: 24 h treatment; Annexin-FITC staining
# Protocol: To determine whether proliferation inhibition was the dominant factor driving the reduction in OC viability seen with AzP treatment, we used propidium iodide and annexin-FITC stains with flow cytometry to measure the distribution of cell cycle phases after treatment. […] Furthermore, in the Boyden chamber assay for cell migration, SU093 inhibited cell migration by 40-46% (1 μM, P<0.05) in different OC cell lines.
# Apoptotic cell death assay: Cells were plated and treated as described in cell cycle analysis assay above. Treated cells were incubated for 24 h and both live and dead cells were collected. Cells were stained with Annexin V and PI using FITC Annexin V apoptosis detection kit (BD Pharmingen, San Jose, CA) by following the manufacturer's protocol. Guava® easyCyte™ Flow Cytometer was used to analyze the stained cells.
# FIG. 1A) Lead optimization of SU093 to obtain SU056. FIG. 1B) IC50 values of SU093 and SU056 on various ovarian cancer cells. Clonogenic survival of OC cells treated with SU093 or SU056. […] FIG. 1C) Representative colony formation from respective wells. FIG. 1D) Number of colonies formed after SU093 and SU056 treatment. […] FIG. 1F) Cell cycle distribution of propidium iodide (PI)-stained OVCAR8, SKOV3, and ID8 cells. […] FIG. 1G) Effects of SU093 and SU056 on apoptotic cell death analyzed by Annexin-FITC staining. […] FIG. 1H) Cell migration assay.
# [1] = system: MDA-MB-231, MDA-MB-468 and SUM 159 cells; experiment: Cell cycle distribution in TNBC cells (flow cytometry); assay type: cell-based; settings: 12 and 24 hr
# Protocol: FIG. 11A). The growth inhibitory effect of SU056 was evaluated using MTT assay. TNBC cell lines (MDA-MB-231, MDA-MB-468, SUM159, 4T1, E0771 and EMT6) were plated in 96 well plate. Next day, treated with vehicle (DMSO) alone or 0.005-50 μM of SU056 in fresh medium. After 48 hr of treatments, cell viability was measured using MTT assay. FIG. 11B). A total of 300-600 cells were plated per well of a 12-well plate and allowed to attach for 24 hr. […] Representative colony formations from respective wells of cell. FIG. 11C) Number of colonies formed after SU056 treatment. FIG. 11D) Effect of SU056 on cell cycle distribution in TNBC cells. MDA-MB-231, MDA-MB-468 and SUM 159 cells were treated with vehicle or SU056 for 12 and 24 hr. At the end of treatment, cells were collected and analysed using flow cytometry. […] SU056 induces level of phosphor-Histone H3 in cells at 12 and 24 hr.
# [2] = target: T1, YB-1 in OVCAR4, OVCAR8, and SKOV3 cells (Homo sapiens, UniProt P67809); experiment: YB-1 inhibition time kinetics (YB-1 ELISA); assay type: cell-based; settings: 5 μM treatment for 24 h; all three OC cells
# T1 construct: endogenous in cells; host or cells: OVCAR4, OVCAR8, SKOV3
# Protocol: Out of six targets identified, we selected proteins whose thermal shift is above 5° in the presence of SU056 for further study of protein expression after treatment. […] To study the in vivo effects of SU056 treatment, we analyzed ID8 tumor xenograft samples via immunohistochemistry (IHC). […] To identify the broader effects of SU056 on YB-1 and its downstream protein/activity in different ovarian cancer cell lines, we selected six different cell lines and treated them with SU056 (2.5 μM) for 12 h. Cells were analyzed for YB-1 and CD44 expression and Multidrug resistance 1 (MDR1, ABC pump mediated efflux). […] Finally, we tested the time kinetics and dose-dependent effects of SU056 on YB-1 expression. OVCAR4, OVCAR8, and SKOV3 cells were treated with SU056 (1, 2.5, and 5 μM) for 3, 6, 12, and 24 h and YB-1 expression was measured using YB-1 ELISA. […]
# Total YB-1 sandwich ELISA: Total YB-1 protein level was analyzed using PathScan® Total YB1 Sandwich ELISA Kit (Cell Signaling, #12543) by following the manufacturer's protocol.
# FIGS. 4A-4E: SU056 inhibits YB-1. […] FIG. 4C) Respective OC cells were treated with 2.5 μM SU056 for 12 h and YB-1 & CD44 expression and multidrug resistance activity was measured as described in the ‘method’ section. The % inhibition was calculated and compared to the control for the respective cell line. […]
# YB-1 = YB-1 (Homo sapiens, UniProt P67809); experiment: Cellular Thermal Shift Assay (CETSA) in OVCAR8 cells; assay type: binding; parameters: endogenous in cells; host or cells: OVCAR8; settings: SU056 2.5 μM, 1.5 h, read-out: increase in thermal stability (Tm shift) of YB-1
# Protocol: The cellular thermal shift assay (CETSA) is based on the principle of protein-ligand interactions causing a shift in protein thermal stability (Savitski et al., 2014). When a protein interacts with ligand, its thermal stability increases, and this principle allows identification of which protein targets that are engaged by small molecules or drug candidates. We used this assay to identify protein targets of SU056. OVCAR8 cells were treated with SU056 (2.5 μM) for 1.5 h, and protein lysates were analyzed for a thermal shift. The heat maps represent the thermal stability of 804 soluble proteins in the presence and absence of SU056 compare with 37° C. (FIG. 3A).
# Cellular Thermal Shift Assay (CETSA): The assay was performed as previously described (Savitski et al., 2014). Briefly, OVCAR8 cells were treated with vehicle (DMSO) or SU056 (2.5 μM) at 70-80% confluency for 1.5 h. Cells were harvested and washed with 1×PBS twice. Cells were pelleted and resuspended in PBS. 10 different PCR tubes with 1×10^6 cells/tube (in 100 μL PBS) were prepared for both the groups. Tubes were exposed to respective temperatures (37, 41, 44, 47, 50, 53, 56, 59, 63, 67° C.) for 3 min using a thermal cycler (Bio-Rad, CA, USA) followed by 2 min incubation at room temperature.
# T1 sequence (P67809 whole entry): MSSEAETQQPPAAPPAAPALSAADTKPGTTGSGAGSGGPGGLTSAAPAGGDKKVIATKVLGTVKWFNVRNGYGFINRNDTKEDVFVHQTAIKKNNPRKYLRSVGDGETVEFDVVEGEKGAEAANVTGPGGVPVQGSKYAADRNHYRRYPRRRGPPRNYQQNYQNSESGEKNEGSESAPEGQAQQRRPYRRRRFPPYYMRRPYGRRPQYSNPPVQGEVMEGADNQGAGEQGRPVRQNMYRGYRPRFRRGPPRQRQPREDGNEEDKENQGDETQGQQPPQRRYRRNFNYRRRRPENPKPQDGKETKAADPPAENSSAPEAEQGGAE
# Sequence of YB-1 (P67809 whole entry): as above
smiles,measurement,setting,value
"O=C1OCC2=C1C(c1cccc(F)c1)c1cc3c(cc1N2CCO)OCO3 (stereo not shown) [SU056, 9-(3-fluorophenyl)-5-(2-hydroxyethyl)-6,9-dihydro-[1,3]dioxolo[4,5-g]furo[3,4-b]quinolin-8(5H)-one]",apoptotic cell death,ovarian cancer cells,induce apoptotic cell death
same,cell cycle distribution in TNBC cells,[1],G2/M phase arrest
same,YB-1 inhibition,[2],100%
same,ΔTm at 2.5 µM,YB-1,5.92 ± 0.86 °C
